For this assay, the system named is S. aureus protein A (SpA). Put plainly: Flow cytometry of FITC-IgG-stained S. aureus (SpA anchoring). Format: cell-based. The following applies: untreated WT 108.58. How it is done:
To quantify the effect of the Sal A on the anchoring of SpA, the FITC-IgG-stained S. aureus was measured by flow cytometry. S. aureus strains were grown overnight and then were diluted 1:100 in BHI broth with or without Sal A and grown until the OD600 reached 1.0. Then, bacteria were harvested by centrifugation at 2,500 × g for 10 min. The collected pellets were washed once with PBS and were incubated in PBS solution containing 0.2% BSA (wt/vol) for 10 min. Afterward, bacteria were washed thrice and then suspended in PBS containing FITC-labelled rabbit anti-goat-IgG at a dilution of 1:50 and incubated at 37°C in the dark for 60 min. After a thorough washing, bacteria were fixed with formaldehyde (2%, vol/vol) for 10 min at room temperature. Fluorescence signal was detected on a FACSCanto flow cytometer (Becton Dickinson, USA) and analyzed using FACSDiva software.

Molecules are shown by their SMILES.

On to `O=C(/C=C/c1ccc(O)c(O)c1/C=C/c1ccc(O)c(O)c1)O[C@H](Cc1ccc(O)c(O)c1)C(=O)O` [Sal A, (2R)-3-(3,4-Dihydroxyphenyl)-2-[(E)-3-[2-[(E)-2-(3,4-dihydroxyphenyl)ethenyl]-3,4-dihydroxyphenyl]prop-2-enoyl]oxypropanoic acid], for which the “mean value of fluorescence yield (Marker: All)” value worked out at 13.64.

The values are drawn from PMC7006784, “The combination of salvianolic acid A with latamoxef completely protects mice against lethal pneumonia caused by methicillin-resistant Staphylococcus aureus” (Emerging Microbes & Infections, 2020).
